The record followed here is patent US6225321A (priority 1997, dated 2001).

In this experiment the test system is Sprague Dawley rats. Put plainly: Analgesic effect, cold ethanol bath tail flick test, intramuscular, rats. The format is in vivo, rat. As to the method: Sprague Dawley rats(175 to 225 g) were used. Each group consisted of 6 rats and each rats was injected once intramuscularly on the rear leg. […]
The dose for each rat was 25 micromole per kg, intramuscularly.
In the experiment, a circulating cold ethanol bath with a temperature maintained at -20° C. was set up. After dosing, the rat tail(1/3 from the tip) was immersed in the bath. The latency for the rat to flick its tail from the bath was measured to be the nociceptive threshold. The effect of various opium alkaloid preparations can be determined with this test.
The nociceptive effect can be calculated as follows: [formula]
35, 25, 15 minutes before dosing, Male Sprague Dawley rat(175-225 g) was tested to measure the basic response latency. The time to top the experiment was set at 40 seconds to prevent the tail from cold sore. No cold sore were found in 40 sec. Five minutes after the drug was given to the rat, the flick test was performed every 10 minutes or more. […]
(c) Dinalbuphine sebacoyl ester, dose was 7.8125 μ/kg, 31.25 μM/kg, 125 μM/kg.
(d) 50 mg/ml dinalbuphine sebacoyl ester parenteral dosage forms, dinalbuphine sebacoyl ester was prepared in sesame oil.
(In general: Thermal pain tests record how soon the animal reacts.)

As to `O=C(CCCCCCCCC(=O)Oc1ccc2c3c1O[C@H]1[C@@H](O)CC[C@@]4(O)[C@@H](C2)N(CC2CCC2)CC[C@]314)Oc1ccc2c3c1O[C@H]1[C@@H](O)CC[C@@]4(O)[C@@H](C2)N(CC2CCC2)CC[C@]314` [sebacoyl dinalbuphine ester], the “dose dependence of analgesic effect” value (FIG. 9, rats, intramuscular, 7.8125, 31.25, 125 μM/kg) is “proportional to the dose administered”. For the same compound, the “time to which 50% analgesic effect was extended” value (FIG. 10, intramuscular, 125 μM/kg) was 88 h. Moreover, the “analgesic effect relative to Nalbuphine hydrochloride” value (intramuscular) was 8.8 times. Also, where the note is “rats, intramuscular, dose below 125 μM/kg”, the “duration of analgesic effect” value is 4 to 5 days.
